Measurements reported in BindingDB's records for doi:10.1016/S0960-894X(00)80254-1 (1991).

Experiment: Inhibition of angiotensin I phosphorylation catalyzed by the protein-tyrosine kinase p56 lck partially purified from bovine thymus.

SMILES	IC50 [mM]
COc1ccc(/C=C/c2ccccn2)cc1OC [2-[(E)-2-(3,4-Dimethoxy-phenyl)-vinyl]-pyridine]	0.829
C(=C\c1ccccn1)/c1ccccn1 [2-[(E)-2-pyridin-2-ylvinyl]pyridine]	1.23
COc1cc(C(=O)Nc2cccnc2)cc(OC)c1OC [3,4,5-Trimethoxy-N-pyridin-3-yl-benzamide]	0.999
COc1cc(C(=O)Nc2ccncc2)cc(OC)c1OC [3,4,5-Trimethoxy-N-pyridin-4-yl-benzamide]	> 2.77
COc1cc(OC)cc(C(=O)Nc2ccccn2)c1 [3,5-Dimethoxy-N-pyridin-2-yl-benzamide]	0.205
COc1cc(OC)cc(C(=O)Nc2ccncc2)c1 [3,5-Dimethoxy-N-pyridin-4-yl-benzamide]	3.1
COc1ccc(/C=C/c2cccnc2)cc1OC [3-(3,4-dimethoxystyryl)pyridine]	0.178
COc1ccc(/C=C/c2cccnc2)cc1 [3-[(E)-2-(4-Methoxy-phenyl)-vinyl]-pyridine]	> 3.79
COc1cc(CNc2ccccn2)cc(OC)c1 [(3,5-Dimethoxy-benzyl)-pyridin-2-yl-amine]	> 3.27
COc1cc(CNc2ccccn2)cc(OC)c1OC [Pyridin-2-yl-(3,4,5-trimethoxy-benzyl)-amine]	> 2.92

Continued, values first:

IC50 [mM]	SMILES
2.12	O=C(Nc1ccncc1)c1cccnc1
> 2.93	COc1cc(CCc2cccnc2)cc(OC)c1OC [3-[2-(3,4,5-Trimethoxy-phenyl)-ethyl]-pyridine]
1.31	COc1ccc(CCc2cccnc2)cc1OC [3-[2-(3,4-Dimethoxy-phenyl)-ethyl]-pyridine]
2.91	c1cc(CCc2ccncc2)ccn1 [4-(2-pyridin-4-ylethyl)pyridine]
2.32	O=C(Nc1ccncc1)c1ccncc1 [N-Pyridin-4-yl-isonicotinamide]
